Laboratory results: patent publication USRE45128E1, “Cephalotaxane derivatives and their processes of preparation and purification” (IVAX International GmbH, priority 1998, dated 2014)

What was measured:
[1] = doses twenty times lower than that for Taxol; cited from earlier work
[2] = system: chronic myeloid leukaemias that have become resistant to alpha-interferon; settings: patients suffering from chronic myeloid leukaemias resistant to alpha-interferon; cited from earlier work
[3] = continuous intravenous central infusion (CIVI), patients with CML; cited from earlier work
[4] = Stability of cephalotaxine in acidic solution; format: physicochemical; settings: several days in solution at pH 1-4 at 20° C. (personal observation)
Procedure: This alkaloid is relatively insensitive to basic media. On the other hand, several authors describe a certain level of sensitivity to acids and to quaternization of the nitrogen with methyl iodide, leading to a racemization by simultaneous inversion of the 3 asymmetric centres and of the nitrogen [D. J. Abraham, R. D. Rosensten and E. L. McGandy, Tetrahedron Letters, 4085 (1969)]. However, a period of several days in solution at pH 1-4 at 20° C. leaves this structure intact (personal observation).

SMILES	daily doses at and above which active [1]	reinduction of full haematological remissions [2] [%]	extra-hematologic toxicity [3]	structure after a period in acidic solution [4]
COC(=O)C[C@](O)(CCCC(C)(C)O)C(=O)OC1C(OC)=C[C@]23CCCN2CCc2cc4c(cc2[C@H]13)OCO4 (stereo partly drawn) [HHT, cephalotaxine, 4-methyl (2R)-2-hydroxy-2-(4-hydroxy-4-methylpentyl)butanedioate (ester)]	≥ 2.5 mg/m^2 of body area per 24 hours	70	very mild	
COC1=C[C@]23CCCN2CCc2cc4c(cc2[C@@H]3C1O)OCO4 (single isomer, unassigned; (-)) [cephalotaxine, (−)-cephalotaxine]				intact
COC(=O)C[C@](O)(CCC(C)(C)O)C(=O)O[C@@H]1C(OC)=C[C@]23CCCN2CCc2cc4c(cc2[C@H]13)OCO4 [HA, harringtonine]			very mild	
